Data: patent EP4050002A1, “ANTI-PROLIFERATIVE AGENTS” (First Health Pharmaceuticals B.V., priority 2021, dated 2022)

Tests used:
[1] = Kinetic solubility (turbidimetry); assay type: physicochemical; settings: for Absorbance at 620nm: PBS pH 7.4, 37°C, 2 h
Protocol: Kinetic solubility was assessed in phosphate buffered saline at pH 7.4 according to the turbidimetry method. Turbidity (precipitation) was measured by absorbance at 620 nm following incubation at 37°C for 2 h. Stock solution of compounds in DMSO were prepared to produce the desired final range of concentrations, then these were added to the buffer to obtain the final test compound concentrations (1 µM, 3 µM, 10 µM, 30 µM, 100 µM), with a final DMSO concentration 1%). Solubility was estimated from the concentration of tested compound that produced a significant increase in absorbance (≥ 0.003 OD at 620 nm) above vehicle control (1% DMSO in water). Miconazole, Reserpine and Propranolol were used as controls.

[2] = biological target: T1, CYP2C9 (Homo sapiens, UniProt P11712); assay: Cytochrome P450 inhibition; assay type: in vitro ADME; settings: 2C9, Human Liver Microsome
T1 construct: 158 µl of Human Liver Microsome working stock solution; from tissue; host or cells: human liver microsomes
T1 sequence (P11712 whole entry): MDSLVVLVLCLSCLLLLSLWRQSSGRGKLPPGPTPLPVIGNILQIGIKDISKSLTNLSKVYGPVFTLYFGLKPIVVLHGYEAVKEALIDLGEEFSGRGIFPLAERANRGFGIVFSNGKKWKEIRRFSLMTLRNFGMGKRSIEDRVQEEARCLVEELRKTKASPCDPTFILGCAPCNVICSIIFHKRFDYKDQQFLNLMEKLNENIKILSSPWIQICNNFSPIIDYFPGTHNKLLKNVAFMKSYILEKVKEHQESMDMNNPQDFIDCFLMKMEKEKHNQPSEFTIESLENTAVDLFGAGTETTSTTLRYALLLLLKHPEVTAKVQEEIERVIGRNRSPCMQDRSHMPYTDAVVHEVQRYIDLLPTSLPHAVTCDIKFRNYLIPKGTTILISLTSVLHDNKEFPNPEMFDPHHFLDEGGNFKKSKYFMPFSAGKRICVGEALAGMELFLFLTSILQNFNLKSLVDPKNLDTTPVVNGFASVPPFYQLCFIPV
Protocol: Ready to use PBS, 9.07-10.00 g, (Sigma Aldrich, catalogue code P3813) was dissolved in […] MilliQ water and pH was adjusted to 7.4.
Substrate pool was done pooling 14 µl of Phenacitin 10 mM (CYP1A2 substrate, Sigma Aldrich, catalogue number 7740), 14 µl Diclofenac 10 mM (CYP2C9 substrate, Sigma Aldrich, catalogue number D6899), 14 µl Dextromethorphan 10 mM (CYP2D6 substrate, Sigma Aldrich, catalogue number D9684), 20.28 µl Midazolam 2.76 mM (CYP3A4 substrate, Sigma Aldrich, catalogue number UC430) and 14 µl Bupropion HCl 10 mM (CYP2B6 substrate, Sigma Aldrich, catalogue number B102), and diluted to 2800 µl with PBS buffer pH 7.4.
Inhibitors of the cytochromes tested were the following: Alpha-naphthoflavone (CYP1A2, Sigma Aldrich, catalogue number N5757); Sulfaphenazole (CYP2C9, Sigma Aldrich, catalogue number S0758); Ticlopidine (CYP2B6, Sigma Aldrich, catalogue number T6654); Quinidine (CYP2D6, Sigma Aldrich, catalogue number Q3625); Ketoconazole (CYP3A4, Sigma Aldrich, catalogue number K1003).
158 µl of Human Liver Microsome working stock solution in PBS buffer pH7.4 was added to reaction plate (0.253 mg/ml, 158 µl/well).
Test compounds and inhibitors were prepared in DMSO and diluted with buffer to prepare working solution with the final concentration of 3000, 999, 333, 111, 37 and 12 µM. 2 µl of working solution of the test compounds or inhibitors listed above were added to reaction plate (2 µl/ well). For control, 2 µl of Acetonitrile containing DMSO (without inhibitor) was added to reaction plate. 20 µl of substrate pool was added to all the wells of the reaction plate. The samples were mixed using the vortex and pre-incubated at 37°C for 5 min.
The NADPH solution 10 mM in PBS buffer pH 7.4 was pre-warmed at 37°C for 5 min. 20 µl of pre-warmed NADPH solution was added to the reaction plate and then incubated at 37°C for 10 min.
The reaction was terminated by adding cold ACN (200 µl/well) to the reaction mixture and centrifuged at 4,000 rpm for 20 minutes.
After centrifugation, 200 µl of supernatant was submitted for LC-MS/MS analysis. Mobile phases include 0.1% formic acid in water and methanol:acetonitrile, 50% (v/v).
Column is Phenomenex kinetic C18, 50 x 4.6 mm, […]. IC50 values were calculated using Graphpad Prism (version 4.03).

[3] = biological target: DDX3X (Homo sapiens, UniProt O00571); assay: nanoDSF enzymatic binding (melting temperature shift); design: human DDX3X (residues 132-607, UniProtID: 000571, produced by Proteros GmbH); purchased Proteros GmbH; settings: Compound 100 µM, DDX3 4 µM
Chain of DDX3X (O00571 132-607): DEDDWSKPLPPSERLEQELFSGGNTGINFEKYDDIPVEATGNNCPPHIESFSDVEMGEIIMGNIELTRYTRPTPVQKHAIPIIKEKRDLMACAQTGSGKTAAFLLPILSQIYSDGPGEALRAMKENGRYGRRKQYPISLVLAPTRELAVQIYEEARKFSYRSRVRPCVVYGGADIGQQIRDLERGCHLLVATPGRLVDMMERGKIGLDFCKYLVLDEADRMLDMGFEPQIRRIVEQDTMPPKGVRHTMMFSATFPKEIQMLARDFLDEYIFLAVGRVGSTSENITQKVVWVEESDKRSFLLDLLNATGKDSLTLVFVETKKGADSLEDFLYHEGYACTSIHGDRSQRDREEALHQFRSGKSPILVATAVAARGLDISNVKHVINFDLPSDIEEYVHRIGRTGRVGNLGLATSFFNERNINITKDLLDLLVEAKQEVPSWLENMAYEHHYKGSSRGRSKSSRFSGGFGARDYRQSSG
From the text: The binding of compounds to DDX3X have been assessed by nanoDSF analysis (NanoTemper Technologies GmbH, Flößergasse 4, 81369 München, Germany). NanoDSF technology is a Differential Scanning Fluorimetry method which measures the protein stability with high resolution without the need of a dye. In particular it measures the changes of the intrinsic tryptophan fluorescence at 330 and 350 nm and it is used to determine the melting temperature of a protein. In the folded state the residues of tryptophan are buried in the hydrophobic core. During denaturation the residues are more exposed and the fluorescence changes in both intensity and wavelength. In a typical experiment, the protein is mixed with the ligand in the reaction buffer and transferred into a capillary. The fluorescence is monitored over temperature gradient between 20 and 95°C with an increment of 2.5°C per minute. The interaction of the ligand to the folded state of the protein shifts the protein melting temperature (Tm) at higher or lower temperature.
Experimental conditions: the experiments were conducted with the device Prometheus NT.48 (NanoTemper Technologies GmbH), the enzyme used was the human DDX3X (residues 132-607, UniProtID: 000571, produced by Proteros GmbH). The assessed compounds were dissolved in pure DMSO adequate to obtain a concentration of compound of 100µM and DMSO 1% (v:v) in final solution. Reaction buffer for DDX3X was 20 mM HEPES, pH 7.5, 0.5 mM TCEP, 500 mM NaCl, 10% (v:v) Glycerin, with a final reaction volume of 10 µL and a final DMSO concentration of 1% (v:v). The reaction was performed in "High sensitivity capillaries" in the range of 20-95°C with a heating rate of 2.5°C/min, with an incubation time of 60 minutes.
• 1) Add appropriate volume of target enzyme in reaction buffer • 2) Add compound(s) in 100% DMSO (1% final DMSO conc.) • 3) Fill the capillary • 4) Measure fluorescence
The assay development was performed with DDX3X protein alone showing a Tm at 54.6 °C.
Binding of compound 5 was assessed with the NanoDSF technique, evaluating the association of the aforementioned compound with APO DDX3X and in presence of a competitor for the ATP binding site, Adenylyl imidodiphosphate (AMPPNP) to assess competition of compound 5 for the DDX3X ATP binding site. Table 6. Final protein and compound concentrations in the various assay setup:
All the measures were performed in triplicate and the average (Mean Tm) and standard deviation (SD) were calculated with the following equations: [formula] and SD = sqrt((∑((Tm−Mean Tm))^2)/(n−1)) [formula]
A change of 5xSD from the 1% DMSO control mean is considered to be a significant Tm change. Test of DDX3X with 1% DMSO was performed to obtain the reference melting temperature of the protein alone. Compounds are considered as binders if the Tm shifts by >= 5 times the standard deviation of the control (protein in the absence of compound). Table 7. DDX3X melting temperatures (Tm) at various experimental conditions

CCCCc1cn(-c2ccc(-c3nnc(-c4ccccc4C(F)(F)F)o3)cc2)nn1 [Compound 5]
solubility at 2 h ([1]; 37 °C, aqueous buffer, kinetic from dmso stock, kinetic solubility, PBS pH 7.4, read-out: solubility): > 100 µM | Absorbance at 620nm ([1]; conc. 1 µM): 0.037 | Absorbance at 620nm ([1]; conc. 3 µM): 0.037 | Absorbance at 620nm ([1]; conc. 10 µM): 0.037 | Absorbance at 620nm ([1]; conc. 30 µM): 0.037 | Absorbance at 620nm ([1]; conc. 100 µM): 0.038 | IC50 [2]: > 30 µM | Comment (Tm shift) ([3]; AMPPNP 100 µM): significant Tm shift to higher Tm, compound interference | Mean Tm ([3]; AMPPNP 100 µM): 56.8 °C | Comment (Tm shift) ([3]; no AMPPNP): significant Tm shift to higher Tm, compound interference | Mean Tm ([3]; no AMPPNP): 56.9 °C
